Assay: xn = mol fraction of the nth substance listed
Details: 101 kPa, Liquid

Cc1ccc(O)cc1 [4-methylphenol] + OCCO
Details | mass density [kg/m3] | viscosity [mPa·s]
308.15 K, x1 = 0.1001 | 1088.89 | 12.15
308.15 K, x1 = 0.1999 | 1077.45 | 12.43
308.15 K, x1 = 0.2997 | 1067.32 | 12.43
308.15 K, x1 = 0.4001 | 1058.44 | 12.09
308.15 K, x1 = 0.4998 | 1050.66 | 11.54
308.15 K, x1 = 0.6002 | 1043.69 | 10.83
308.15 K, x1 = 0.7 | 1037.34 | 10.01
308.15 K, x1 = 0.8 | 1031.62 | 9.31
308.15 K, x1 = 0.8994 | 1026.55 | 8.726
308.15 K, x1 = 1 | 1021.98 | 8.444
313.15 K, x1 = 0.1001 | 1085.2 | 9.956
313.15 K, x1 = 0.1999 | 1073.68 | 10.18
313.15 K, x1 = 0.2997 | 1063.52 | 10.13
313.15 K, x1 = 0.4001 | 1054.58 | 9.821
313.15 K, x1 = 0.4998 | 1046.78 | 9.353
313.15 K, x1 = 0.6002 | 1039.82 | 8.735
313.15 K, x1 = 0.7 | 1033.45 | 8.103
313.15 K, x1 = 0.8 | 1027.72 | 7.526
313.15 K, x1 = 0.8994 | 1022.63 | 7.022
313.15 K, x1 = 1 | 1018.05 | 6.745
318.15 K, x1 = 0.1001 | 1081.49 | 8.319
318.15 K, x1 = 0.1999 | 1069.89 | 8.436
318.15 K, x1 = 0.2997 | 1059.67 | 8.358
318.15 K, x1 = 0.4001 | 1050.7 | 8.059
318.15 K, x1 = 0.4998 | 1042.88 | 7.662
318.15 K, x1 = 0.6002 | 1035.9 | 7.175
318.15 K, x1 = 0.7 | 1029.55 | 6.646
318.15 K, x1 = 0.8 | 1023.79 | 6.177
318.15 K, x1 = 0.8994 | 1018.7 | 5.739
318.15 K, x1 = 1 | 1014.09 | 5.471
323.15 K, x1 = 0.1001 | 1077.77 | 7.031
323.15 K, x1 = 0.1999 | 1066.09 | 7.069
323.15 K, x1 = 0.2997 | 1055.81 | 6.976
323.15 K, x1 = 0.4001 | 1046.81 | 6.721
323.15 K, x1 = 0.4998 | 1038.98 | 6.378
323.15 K, x1 = 0.6002 | 1031.99 | 5.971
323.15 K, x1 = 0.7 | 1025.61 | 5.523
323.15 K, x1 = 0.8 | 1019.85 | 5.136
323.15 K, x1 = 0.8994 | 1014.75 | 4.788
323.15 K, x1 = 1 | 1010.12 | 4.532
333.15 K, x1 = 0.1001 | 1070.28 | 5.121
333.15 K, x1 = 0.1999 | 1058.44 | 5.137
333.15 K, x1 = 0.2997 | 1048.06 | 5.029
333.15 K, x1 = 0.4001 | 1038.98 | 4.824
333.15 K, x1 = 0.4998 | 1031.11 | 4.607
333.15 K, x1 = 0.6002 | 1024.09 | 4.298
333.15 K, x1 = 0.7 | 1017.71 | 3.988
333.15 K, x1 = 0.8 | 1011.92 | 3.711
333.15 K, x1 = 0.8994 | 1006.8 | 3.461
333.15 K, x1 = 1 | 1002.09 | 3.245
343.15 K, x1 = 0.1001 | 1060.64 | 3.886
343.15 K, x1 = 0.1999 | 1048.68 | 3.849
343.15 K, x1 = 0.2997 | 1038.24 | 3.752
343.15 K, x1 = 0.4001 | 1029.09 | 3.602
343.15 K, x1 = 0.4998 | 1021.2 | 3.424
343.15 K, x1 = 0.6002 | 1014.17 | 3.201
343.15 K, x1 = 0.7 | 1007.79 | 2.995
343.15 K, x1 = 0.8 | 1001.99 | 2.786
343.15 K, x1 = 0.8994 | 996.84 | 2.588
343.15 K, x1 = 1 | 992.07 | 2.431
353.15 K, x1 = 0.1001 | 1055.58 | 2.934
353.15 K, x1 = 0.1999 | 1043.36 | 2.99
353.15 K, x1 = 0.2997 | 1032.81 | 2.915
353.15 K, x1 = 0.4001 | 1023.59 | 2.776
353.15 K, x1 = 0.4998 | 1015.62 | 2.648
353.15 K, x1 = 0.6002 | 1008.55 | 2.488
353.15 K, x1 = 0.7 | 1002.15 | 2.326
353.15 K, x1 = 0.8 | 996.33 | 2.173
353.15 K, x1 = 0.8994 | 991.1 | 2.022
353.15 K, x1 = 1 | 986.24 | 1.891
